According to a compilation of properties of binary mixtures (doi:10.1021/je1012444):

Assay: xn = mol fraction of the nth substance listed
Conditions: 100 kPa

CCCC[n+]1ccn(C)c1.F[P-](F)(F)(F)(F)F + c1ccccc1
viscosity [mPa·s]
Conditions | x2 = 0.0999 | x2 = 0.2002 | x2 = 0.3003 | x2 = 0.3953 | x2 = 0.5001 | x2 = 0.6779
313.2 K | 54.8 | 40.7 | 29 | 18.5 | 11.2 | 7.2
333.2 K | 26.9 | 22 | 15.1 | 9.6 | 7.6 | –
